In patent EP4635969A1, “NOVEL GLUCOCORTICOID, METHOD FOR PREPARING SAME, AND USE THEREOF” (Tianjin Pharmaceutical Biotechnology Co., Ltd., priority 2022, dated 2024):

Tests used:
uveitis model rats = assay: Anti-uveitis pharmacodynamic experiment (LPS model): ocular pathological score; format: in vivo, male SD rats
Description: Pharmacodynamic Experiment on Anti-Uveitis
Positive control drug: Fluorometholone Eye Drops (specification: 5 mL/5 mg; Santen Pharmaceutical (CHINA) Co., Ltd.; Lot No. : J20180068) was used as the positive control drug and stored at room temperature protected from light until use.
Fifty male SD rats underwent a one-week adaptive feeding period. […] Groups 2 to 5 were used to establish rat uveitis models by single subcutaneous injection of 1 mg/kg LPS (Salmonella; Sigma; Lot No. 0000164114) into the plantar tissue of the hindpaw. Salmonella endotoxin was dissolved in normal saline to prepare an injection solution at a concentration of 2 mg/mL, which was injected subcutaneously at 1 mg/kg into the plantar tissue of one paw of the rats. Group 1 was injected with an equal volume of normal saline.
At the end of the experiment, photos of the rats' eyes were taken using a slit-lamp microscope, and the differences in ocular lesions of rats among groups were compared and analyzed.
Statistical analysis was performed using SPSS software. Measurement data were expressed as mean ± standard deviation. One-way ANOVA was used for intergroup comparisons. For data with homogeneous variance, LSD test was used; for data with heterogeneous variance, Dunnett-t test was used. A value of P < 0.05 was considered statistically significant.

[1] = test system: dry eye syndrome model New Zealand rabbits; assay: Dry eye syndrome experiment (benzalkonium chloride model): tear secretion test with phenol red cotton threads; format: in vivo, male New Zealand White rabbits
Description: (§1) Positive control drug: Fluorometholone Eye Drops (specification: 5 mL/5 mg; Santen Pharmaceutical (CHINA) Co., Ltd.; Lot No.: 1FM6625) was used as the positive control drug and stored at room temperature protected from light until use.
(§2) Thirty male New Zealand White rabbits (conventional grade) were prepared. Six rabbits were randomly selected as the blank control group, and the remaining animals were administered 0.1% benzalkonium chloride to the left eye twice daily (morning and evening) , 10 µL/animal each time. On day 6 of modeling, tear secretion was measured using phenol red cotton threads to determine whether the model was successfully established. […] During the administration, all animals except the blank control group were administered 10 µL of 0.1% benzalkonium chloride to the left eye once daily to maintain dry eye symptoms..
• Test time: D3, D7, D15; • Test animals: All animals were tested before grouping; all enrolled surviving animals were tested after administration; • Test method: Tear secretion was measured using phenol red cotton threads. The tear secretion test paper was folded and placed at the middle and outer 1/3 of the rabbit palpebral conjunctival sac for 1 min. The test paper was then removed, observed, and recorded for its wetting length. The test was repeated 3 times, and the values were averaged.
(§3) The normality and homogeneity of variance were tested by Levene's test. If there was no statistical significance (P > 0.05), one-way analysis of variance (ANOVA) was used for statistical analysis. If ANOVA was statistically significant (P ≤ 0.05), LSD test (parametric method) was used for comparative analysis. If the variance was heterogeneous (P ≤ 0.05), Kruskal-Wallis test was used. If the Kruskal-Wallis test was statistically significant (P ≤ 0.05), Dunnett's test (nonparametric method) was used for comparative analysis.

[2] = test system: dry eye syndrome model New Zealand rabbits; assay: Dry eye syndrome experiment (benzalkonium chloride model): tear film break-up time; format: in vivo, male New Zealand White rabbits
Description: as §1, §2
• Test time: D3, D7, D15; • Test animals: All animals were tested before grouping; all enrolled surviving animals were tested after administration; • Test method: 1% Fluorescein sodium was dropped onto the inner side of the rabbit's lower eyelid, 10 µL/animal. The rabbit's eyes were closed and gently massaged to evenly distribute the fluorescein sodium on the eye surface. The rabbit's eyes were then sequentially placed under a slit lamp. The tear film break-up time was observed and recorded as the time from eye opening to the appearance of the first dark spot. If no dark spot appeared, the time was calculated as 60 seconds.
as §3

[3] = test system: dry eye syndrome model New Zealand rabbits; assay: Dry eye syndrome experiment (benzalkonium chloride model): corneal fluorescein sodium staining; format: in vivo, male New Zealand White rabbits
[4] = test system: intraocular pressure of guinea pigs; assay: Adverse reactions of continuous ocular administration: intraocular pressure; format: in vivo
Description: Pharmacological Example 9: Experiment on Adverse Reactions of Continuous Ocular Administration in Guinea Pigs
Test samples: Compounds 17 and 23 were prepared as 5 mg/5 mL ophthalmic suspensions with reference to the formulation of Fluorometholone Eye Drops, and stored at room temperature protected from light until use.
Positive control drug: Fluorometholone Eye Drops (specification: 5 mL/5 mg; Santen Pharmaceutical (CHINA) Co., Ltd.; Lot No.: 1FM6545), Loteprednol Etabonate Eye Drops (specification 0.5% (5 mg/mL); Shandong Bausch & Lomb Freda Pharmaceutical Co., Ltd; Lot No. 386521), stored at room temperature protected from light until use.
Animals: 50 guinea pigs, conventional grade, with an equal number of males and females, weighing 300-350 g..
Animal grouping: After 5 days of adaptive feeding, the guinea pigs were randomly divided into 5 groups based on body weight. Group 1 was the blank control group, and 50 µL of normal saline was dropped into the eyes (bilateral) of the guinea pigs. Groups 2 to 5 were the fluorometholone group, loteprednol group, compound 17 group, and compound 23 group, respectively, and the corresponding drugs were dropped into the eyes (bilateral) of the guinea pigs. Table 19. Animal grouping and drug administration dosages for the experiment on adverse reactions of continuous ocular administration in guinea pigs
Intraocular pressure measurement time: The intraocular pressure of animals in each group was measured before administration and on days 7, 14, 21, and 28 post-administration.

[5] = test system: inflammatory bowel disease model rats; assay: Inflammatory bowel disease experiment (TNBS model): macroscopic injury score of the colon; format: in vivo; conditions: colon, day 5 after TNBS; 2 mg/kg once a day (compounds intraintestinally, dexamethasone by gavage)
Description: Pharmacological Example 7: Pharmacodynamic Experiment on Inflammatory Bowel Disease in Rats
Test samples: The jet-milled compounds 23 and 34 were accurately weighed and prepared as 2 mg/mL clear solutions using anhydrous ethanol, respectively. The solutions were then diluted to 0.2 mg/mL with double-distilled water as the test samples, and stored at room temperature protected from light until use.
Animals in Groups 2 to 5 were subjected to trinitrobenzene sulfonic acid (TNBS) modeling as follows: A 5% TNBS aqueous solution was adjusted to 20 mg/mL TNBS (50% ethanol solution) with alcohol and water. After fasting for 24 h, the rats were anesthetized using an inhalation anesthesia machine. A silicone hose was inserted approximately 8 cm into the anus, and then TNBS was injected at a dose of 50 mg/kg. After injection, the rats were placed vertically for 1 min to prevent the backflow of TNBS solution. Then, the rats were placed into their cages for observation until the animals recovered.
Drug administration started one day before modeling, with one dose administered 1 hour before modeling and then once a day for 5 consecutive days. […] Table 14. Animal grouping and drug administration dosages
The experiment ended on day 5 after TNBS modeling. After isoflurane anesthesia, blood was collected from the hearts, and the rats were euthanized. The abdominal cavity was rapidly opened, and the macroscopic injury scoring of the colon in rats was performed based on the adhesion, obstruction, thickening of the colonic wall, colonic congestion, and necrosis in the colon area. After clearing the colonic contents, the colonic samples were longitudinally incised. The proximal 2/3 of the colon was excised, prepared into Swiss rolls, and stored in 4% neutral buffered formalin for histopathological analysis. Tissues were trimmed, dehydrated, paraffin-embedded, and sectioned (approximately 5 µm thickness), stained with hematoxylin-eosin (HE), and observed for pathological changes. Pathologists performed blind scoring of colonic lesions.
Quantitative indices were first subjected to Bartlett's test for homogeneity of variance. When the variance was homogeneous (P > 0.05), one-way analysis of variance (ANOVA) was used for a statistical test; if there was statistical significance (P ≤ 0.05), Dunnett's t-test (Dunnett method) was used to compare intergroup differences; if there was no statistical significance (P > 0.05), the statistical analysis was concluded. When the variance was heterogeneous (P ≤ 0.05), Kruskal-Wallis H rank-sum test (K-W method) was used for statistical analysis: if there was statistical significance (P ≤ 0.05), Mann-Whitney U test (M-W method) was further performed to compare intergroup differences; if there was no statistical significance (P > 0.05), the statistical analysis was concluded.

[6] = D3, 1 mg/mL, 50 µL/eye, 3 times a day for 14 days
[7] = D7, 1 mg/mL, 50 µL/eye, 3 times a day for 14 days
[8] = D15, 1 mg/mL, 50 µL/eye, 3 times a day for 14 days

## CC(=O)[C@@]1(O)CC[C@H]2[C@@H]3C[C@H](C)C4=CC(=O)C=C[C@]4(C)[C@@]3(F)[C@@H](O)C[C@@]21C [Fluorometholone, reference compound]
Uveitis model rats; 1 mg/mL, 40 µL/eye, 3 times a day for 2 days
  Ocular pathological score: 7.1 ± 0.7
Uveitis model rats; compared with the model group
  ocular abnormalities / ocular pathological score: significantly improved the ocular abnormalities and reduced the ocular pathological score
[1]; D0, 1 mg/mL, 50 µL/eye, 3 times a day for 14 days
  Wetting length of phenol red cotton threads (mm) D0: 26.35 ± 5.52 mm
[1]; [6]
  Wetting length of phenol red cotton threads (mm) D3: 29.45 ± 5.48' mm
[1]; [7]
  Wetting length of phenol red cotton threads (mm) D7: 30.41 ± 5.29" mm
[1]; [8]
  Wetting length of phenol red cotton threads (mm) D15: 32.26 ± 3.69 mm
[1]; compared with the model group
  tear secretion: significantly increased the tear secretion on day 15
[2]; [6]
  Tear film break-up time (s) D3: 43.17 ± 14.47 s
[2]; [7]
  Tear film break-up time (s) D7: 47.33 ± 16.37 s
[2]; [8]
  Tear film break-up time (s) D15: 51.33 ± 13.44" s
[2]; compared with the model group
  tear film break-up time: significantly increased the tear film break-up time on day 15
[3]; [6]
  Corneal fluorescein sodium staining score D3: 1.67 ± 0.82
[3]; [7]
  Corneal fluorescein sodium staining score D7: 1.17 ± 0.41
[3]; [8]
  Corneal fluorescein sodium staining score D15: 1.0 ± 0
[3]; compared with the model group
  inflammatory response on the ocular surface / ocular symptoms: significantly inhibited the inflammatory response on the ocular surface on day 15
[4]
  intraocular pressure after continuous ocular administration: intraocular pressure elevation was detected on day 7
[4]; D0, before administration, 50 µL/eye (compounds and fluorometholone 1 mg/mL, loteprednol 5 mg/mL)
  Intraocular pressure of guinea pigs (mmHg) D0: 14.3 ± 1.5 mmHg
[4]; D7, 50 µL/eye (compounds and fluorometholone 1 mg/mL, loteprednol 5 mg/mL)
  Intraocular pressure of guinea pigs (mmHg) D7: 20.5 ± 3.3 mmHg
[4]; D14, 50 µL/eye (compounds and fluorometholone 1 mg/mL, loteprednol 5 mg/mL)
  Intraocular pressure of guinea pigs (mmHg) D14: 21.2 ± 2.1 mmHg
[4]; D21, 50 µL/eye (compounds and fluorometholone 1 mg/mL, loteprednol 5 mg/mL)
  Intraocular pressure of guinea pigs (mmHg) D21: 23.0 ± 3.1 mmHg
[4]; D28, 50 µL/eye (compounds and fluorometholone 1 mg/mL, loteprednol 5 mg/mL)
  Intraocular pressure of guinea pigs (mmHg) D28: 22.5 ± 2.1 mmHg

## C[C@@H]1C[C@H]2[C@@H]3CCC4=CC(=O)C=C[C@]4(C)[C@@]3(F)[C@@H](O)C[C@]2(C)[C@@]1(O)C(=O)CO [Dexamethasone, reference compound]
[5]
  Macroscopic injury score: 5.00 ± 0.66
